Like-named read-outs stand apart in the source and are kept apart here.
Tests used:
Assay type in all cases: cell-based
[1] = system: PD1-ss+10aa/Gaussia Luciferase; experiment: Dox-Induced PD1-ss-Gluc Assay
In short: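 Compounds, diluted in DMSO/media with doxycycline, were added to cells plated a day earlier and kept at 37° C under 5% CO2. The cells stably express a Gaussia luciferase construct fused to PD1-ss+10aa, induced via the T-REx system. Unassigned stereochemistry means mixture data.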

[2] = system: TNFα-FL/Gaussia Luciferase; experiment: Dox Induced TNFα-FL-Gluc Assay
In short: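 Compounds were added in doxycycline-containing DMSO/media to cells plated the previous day and incubated at 37° C under 5% CO2. These cells stably express a TNFα-FL/Gaussia luciferase cDNA whose expression is under T-REx (Dox-inducible) control, selected with Hygromycin and Blasticidin.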

[3] = system: HER3-ss+4aa/Gaussia Luciferase; experiment: Dox-Induced Her3-ss-Gluc Assay
In short: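 Compounds, diluted in DMSO/media containing doxycycline, were incubated at 37° C., 5% CO2 with cells seeded one day earlier. The cells stably express HER3-ss+4aa/Gaussia luciferase under T-REx control. Where no stereochemistry is shown, data refer to the mixture of stereoisomers.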

[4] = system: IL-2-FL/Gaussia Luciferase; experiment: Dox Induced IL2-FL-Gluc Assay
In short: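 Compounds were added together with doxycycline in DMSO/media and incubated at 37° C., 5% CO2. The cells were a stably selected line carrying IL-2-FL/Gaussia luciferase under T-REx inducible control. Structures drawn without stereochemistry were tested as stereoisomer mixtures.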

[5] = system: human multiple myeloma cell line NCI-H929; experiment: H929 Cell Viability Assay; conditions: 48 hr, NCI-H929 cells, Celltiter-Glo, read-out: 48 hr H929 Viability Celltiter-Glo: Mean EC50
Protocol: Plates were incubated at 37° C., 5% CO2 for 48 hours. After 48 hours, Celltiter-Glo® (Promega) was added to each well and luciferase signal was quantified using Tecan Infinite M1000 Pro for cell viability determination.
For chemical structures that include one or more stereoisomers, but are illustrated without indicating stereochemistry, the assay data refers to a mixture of stereoisomers.

[6] = system: human multiple myeloma cell line U266B1; experiment: U266 Cell Viability Assay; conditions: U-266, 48 hr, U266B1 cells, Celltiter-Glo, read-out: 48 hr U266 Viability Celltiter-Glo: Mean EC50
In short: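 Viability measured by CellTiter-Glo luciferase signal after 48 h compound exposure (37 °C, 5% CO2) of U266B1 cells in 384-well format. Where stereochemistry is not shown, data refer to the stereoisomer mixture.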

[7] = 24 hr, doxycycline-induced, 293FRT/TO cells; read-out: 24 hr Dox Inducible PD1ssGluc 293FRT/TO: Mean IC50
[8] = 24 hr, doxycycline-induced, 293FRT/TO cells; read-out: 24 hr Dox Inducible TNFaFLGluc 293FRT/TO: Mean IC50
[9] = 24 hr, doxycycline-induced, 293FRT/TO cells; read-out: 24 hr Dox Inducible Her3(ss + 4)Gluc 293FRT/TO: Mean IC50
[10] = 24 hr, doxycycline-induced, 293FRT/TO cells; read-out: 24 hr Dox Inducible IL2FLGIuc 293FRT/TO: Mean IC50
[11] = 24 hr doxycycline induction, 293FRT/TO cells, Gaussia luciferase signal; read-out: 24 hr Dox Inducible PD1ssGluc 293FRT/TO: Mean IC50
[12] = 24 hr doxycycline induction, 293FRT/TO cells, Gaussia luciferase signal; read-out: 24 hr Dox Inducible TNFaFLGluc 293FRT/TO: Mean IC50
[13] = 24 hr doxycycline induction, 293FRT/TO cells, Gaussia luciferase signal; read-out: 24 hr Dox Inducible Her3(ss + 4)Gluc 293FRT/TO: Mean IC50
[14] = 24 hr doxycycline induction, 293FRT/TO cells, Gaussia luciferase signal; read-out: 24 hr Dox Inducible IL2FLGIuc 293FRT/TO: Mean IC50

Structure (SMILES): CC(C)(C)[Si](O[C@@H]1CCN(c2ccccc2)[C@@H]1c1csc(NC(=O)c2cccn2Cc2ccncc2)n1)(c1ccccc1)c1ccccc1 [Compound A352]
- IC50 ([1]; read-out: 24 hr Dox Inducible PD1ssGluc 293FRT/TO: Mean IC50; 24 hr, doxycycline-induced, 293FRT/TO cells): 0.008 µM
- IC50 ([2]; read-out: 24 hr Dox Inducible TNFaFLGluc 293FRT/TO: Mean IC50; 24 hr, doxycycline-induced, 293FRT/TO cells): 0.062 µM
- IC50 ([3]; read-out: 24 hr Dox Inducible Her3(ss + 4)Gluc 293FRT/TO: Mean IC50; 24 hr, doxycycline-induced, 293FRT/TO cells): 0.019 µM
- IC50 ([4]; read-out: 24 hr Dox Inducible IL2FLGIuc 293FRT/TO: Mean IC50; 24 hr, doxycycline-induced, 293FRT/TO cells): 0.016 µM
- EC50 [5]: 0.452 µM
- EC50 [6]: > 25 µM

Structure (SMILES): O=C(Nc1nc([C@H]2CC[C@@H]2c2ccccc2)cs1)c1cccn1Cc1ccncc1 [Compound A331]
- IC50 [1, 7]: 0.064 µM
- IC50 [2, 8]: 0.423 µM
- IC50 [3, 9]: 0.082 µM
- IC50 [4, 10]: 0.178 µM
- EC50 [5]: 4.72 µM
- EC50 [6]: > 25 µM

Structure (SMILES): O=C(Nc1nc([C@@H]2CCC(=O)N2Cc2ccccc2)cs1)c1cccn1Cc1ccncc1 [Compound A320]
- IC50 [1, 7]: 10.4 µM
- IC50 [2, 8]: > 25 µM
- IC50 [3, 9]: > 25 µM
- IC50 [4, 10]: > 25 µM
- EC50 [5]: > 25 µM
- EC50 [6]: > 25 µM

Structure (SMILES): O=C(Nc1nc(/C=C/c2ccc(Cl)cc2)cs1)c1cccn1Cc1ccncc1 [Compound A163, N-(4-(4-chlorostyryl)thiazol-2-yl)-1-(pyridin-4-ylmethyl)-1H-pyrrole-2-carboxamide]
- IC50 [1, 11]: 0.059 µM
- IC50 [2, 12]: 2.47 µM
- IC50 [3, 13]: 0.305 µM
- IC50 [4, 14]: 0.652 µM
- EC50 [5]: 7.61 µM
- EC50 [6]: 24.5 µM

Structure (SMILES): COc1ccc(O[C@H]2C[C@H](c3csc(NC(=O)c4cccn4Cc4ccncc4)n3)C2)nc1 [Compound A314]
- IC50 [1, 7]: 0.047 µM
- IC50 [2, 8]: 1.47 µM
- IC50 [3, 9]: 0.145 µM
- IC50 [4, 10]: 0.424 µM
- EC50 [5]: 9.98 µM
- EC50 [6]: 16 µM

Structure (SMILES): O=C(Nc1nc([C@H]2C[C@@H](OC3CCCCC3)CN2c2ccccc2)cs1)c1cccn1Cc1ccncc1 [Compound A354]
- IC50 [1, 7]: 0.006 µM
- IC50 [2, 8]: 0.054 µM
- IC50 [3, 9]: 0.016 µM
- IC50 [4, 10]: 0.021 µM
- EC50 [5]: 0.901 µM
- EC50 [6]: > 25 µM

Structure (SMILES): O=C(Nc1nc2ccsc2s1)c1cccn1Cc1ccncc1 [Compound A60]
- IC50 [1, 11]: 1.57 µM
- IC50 [2, 12]: > 25 µM
- IC50 [3, 13]: 3.75 µM
- IC50 [4, 14]: 2.69 µM
- EC50 [5]: > 25 µM
- EC50 [6]: > 25 µM

Structure (SMILES): CCc1cc(N(C)C(=O)c2cccn2Cc2ccncc2)ccc1C [Compound B25, N-(3-ethyl-4-methylphenyl)-N-methyl-1-(pyridin-4-ylmethyl)-1H-pyrrole-2-carboxamide]
- IC50 [1, 7]: > 25 µM
- IC50 [2, 8]: > 25 µM
- IC50 [3, 9]: > 25 µM
- IC50 [4, 10]: > 25 µM
- EC50 [5]: > 25 µM
- EC50 [6]: > 25 µM

Structure (SMILES): COc1cccc(C#Cc2csc(NC(=O)c3cccn3Cc3ccncc3)n2)c1 [Compound A142]
- IC50 [1, 11]: 0.241 µM
- IC50 [2, 12]: 5.41 µM
- IC50 [3, 13]: 0.565 µM
- IC50 [4, 14]: 1.05 µM
- EC50 [5]: > 25 µM
- EC50 [6]: > 25 µM

Structure (SMILES): CN(C(=O)c1cccn1Cc1ccncc1)c1nc2ccccc2s1 [Compound A116]
- IC50 [1, 11]: > 25 µM
- IC50 [2, 12]: > 25 µM
- IC50 [3, 13]: > 25 µM
- IC50 [4, 14]: > 25 µM
- EC50 [5]: > 25 µM
- EC50 [6]: > 25 µM

Structure (SMILES): COc1ccc(/C=C/c2csc(NC(=O)c3cccn3Cc3ccncc3)n2)cc1 [Compound A160, N-(4-(4-methoxystyryl)thiazol-2-yl)-1-(pyridin-4-ylmethyl)-1H-pyrrole-2-carboxamide]
- IC50 [1, 11]: 0.051 µM
- IC50 [2, 12]: 1.74 µM
- IC50 [3, 13]: 0.259 µM
- IC50 [4, 14]: 0.374 µM
- EC50 [5]: 9.1 µM
- EC50 [6]: > 25 µM

Structure (SMILES): CCS(=O)(=O)N1CCN(Cc2csc(NC(=O)c3cccn3Cc3ccncc3)n2)CC1 [Compound A96, N-(4-((4-(ethylsulfonyl)piperazin-1-yl)methyl)thiazol-2-yl)-1-(pyridin-4-ylmethyl)-1H-pyrrole-2-carboxamide]
- IC50 [1, 11]: 15.7 µM
- IC50 [2, 12]: > 25 µM
- IC50 [3, 13]: > 25 µM
- IC50 [4, 14]: > 25 µM
- EC50 [5]: > 25 µM
- EC50 [6]: > 25 µM

Structure (SMILES): O=C(Nc1nc(/C=C/Cc2ccccc2)cs1)c1cccn1CCCc1ccncc1 [Compound A217, N-(4-(3-phenylprop-1-en-1-yl)thiazol-2-yl)-1-(3-(pyridin-4-yl)propyl)-1H-pyrrole-2-carboxamide]
- IC50 [1, 11]: 0.245 µM
- IC50 [2, 12]: 3.53 µM
- IC50 [3, 13]: 0.425 µM
- IC50 [4, 14]: 0.943 µM
- EC50 [5]: > 21.5 µM
- EC50 [6]: > 25 µM

Structure (SMILES): CC(C)OC(C)(C)c1csc(NC(=O)c2cccc(=O)n2Cc2ccncc2)n1 [Compound A106, N-(4-(2-isopropoxypropan-2-yl)thiazol-2-yl)-6-oxo-1-(pyridin-4-ylmethyl)-1,6-dihydropyridine-2-carboxamide]
- IC50 [1, 11]: > 25 µM
- IC50 [2, 12]: > 25 µM
- IC50 [3, 13]: > 25 µM
- IC50 [4, 14]: > 25 µM
- EC50 [5]: > 25 µM
- EC50 [6]: > 25 µM

Structure (SMILES): CC(C)OC(C)(C)c1csc(NC(=O)c2cccn2Cc2ccc(C#N)cc2)n1 [Compound A80, 1-(4-cyanobenzyl)-N-(4-(2-isopropoxypropan-2-yl)thiazol-2-yl)-1H-pyrrole-2-carboxamide]
- IC50 [1, 11]: 4.22 µM
- IC50 [2, 12]: > 25 µM
- IC50 [3, 13]: 7.88 µM
- IC50 [4, 14]: 3.53 µM
- EC50 [5]: 21.9 µM
- EC50 [6]: > 25 µM

Structure (SMILES): CC(C)OC(C)(C)c1csc(NC(=O)Cc2ccc(Cc3ccncc3)[nH]2)n1 [Compound B12, N-(4-(2-isopropoxypropan-2-yl)thiazol-2-yl)-2-(5-(pyridin-4-ylmethyl)-1H-pyrrol-2-yl)acetamide]
- IC50 [1, 7]: > 25 µM
- IC50 [2, 8]: > 25 µM
- IC50 [3, 9]: > 25 µM
- IC50 [4, 10]: > 25 µM
- EC50 [5]: > 25 µM
- EC50 [6]: > 25 µM

Structure (SMILES): O=C(Nc1nc([C@H]2CC(F)(F)CN2c2ccccc2)cs1)c1cccn1Cc1ccncc1 [Compound A339]
- IC50 [1, 7]: 0.018 µM
- IC50 [2, 8]: 0.226 µM
- IC50 [3, 9]: 0.029 µM
- IC50 [4, 10]: 0.013 µM
- EC50 [5]: 1.31 µM
- EC50 [6]: > 25 µM

Structure (SMILES): O=C(Nc1nc(/C=C/c2ncc(OC3CCCC3)cc2F)cs1)c1cccn1Cc1ccncc1 [Compound A295]
- IC50 [1, 7]: 0.005 µM
- IC50 [2, 8]: 3.56 µM
- IC50 [3, 9]: 0.692 µM
- IC50 [4, 10]: 0.846 µM
- EC50 [5]: 18.3 µM
- EC50 [6]: 18.9 µM

Structure (SMILES): CC(C)c1csc(NC(=O)[C@H]2CCCN2C(=O)c2ccncc2)n1 [Compound B21, (R)-1-isonicotinoyl-N-(4-isopropylthiazol-2-yl)pyrrolidine-2-carboxamide]
- IC50 [1, 7]: > 25 µM
- IC50 [2, 8]: > 25 µM
- IC50 [3, 9]: > 25 µM
- IC50 [4, 10]: > 25 µM
- EC50 [5]: > 25 µM
- EC50 [6]: > 25 µM

Structure (SMILES): O=C(Nc1nc(C2CCc3ccccc3O2)cs1)c1cccn1Cc1ccncc1 (stereo not drawn) [Compound A283]
- IC50 [1, 11]: 1.35 µM
- IC50 [2, 12]: 7.18 µM
- IC50 [3, 13]: 3.07 µM
- IC50 [4, 14]: 3.87 µM
- EC50 [5]: 23 µM
- EC50 [6]: > 25 µM

Structure (SMILES): CC(C)(C)c1csc(NC(=O)c2cccn2Cc2ccccc2Cl)n1 [Compound B11, N-(4-(tert-butyl)thiazol-2-yl)-1-(2-chlorobenzyl)-1H-pyrrole-2-carboxamide]
- IC50 [1, 7]: 22.7 µM
- IC50 [2, 8]: > 25 µM
- IC50 [3, 9]: 5.57 µM
- IC50 [4, 10]: > 25 µM
- EC50 [5]: > 25 µM
- EC50 [6]: > 25 µM

Structure (SMILES): CCc1sc(NC(=O)c2cccn2Cc2ccncc2)nc1CN1CCN(S(=O)(=O)CC)CC1 [Compound A92, N-(5-ethyl-4-((4-(ethylsulfonyl)piperazin-1-yl)methyl)thiazol-2-yl)-1-(pyridin-4-ylmethyl)-1H-pyrrole-2-carboxamide]
- IC50 [1, 11]: 13.1 µM
- IC50 [2, 12]: > 25 µM
- IC50 [3, 13]: > 25 µM
- IC50 [4, 14]: > 25 µM
- EC50 [5]: > 25 µM
- EC50 [6]: > 25 µM
